One may read the IC50 as the midpoint of a concentration-inhibition curve.

For one test, the target named is T1, Menin-MLL (Homo sapiens, UniProt O00255).
T1 construct: His-Menin (M1-L615 end); purchased BIORTUS BP9210
T1 sequence (O00255 1-615 isoform O00255-1): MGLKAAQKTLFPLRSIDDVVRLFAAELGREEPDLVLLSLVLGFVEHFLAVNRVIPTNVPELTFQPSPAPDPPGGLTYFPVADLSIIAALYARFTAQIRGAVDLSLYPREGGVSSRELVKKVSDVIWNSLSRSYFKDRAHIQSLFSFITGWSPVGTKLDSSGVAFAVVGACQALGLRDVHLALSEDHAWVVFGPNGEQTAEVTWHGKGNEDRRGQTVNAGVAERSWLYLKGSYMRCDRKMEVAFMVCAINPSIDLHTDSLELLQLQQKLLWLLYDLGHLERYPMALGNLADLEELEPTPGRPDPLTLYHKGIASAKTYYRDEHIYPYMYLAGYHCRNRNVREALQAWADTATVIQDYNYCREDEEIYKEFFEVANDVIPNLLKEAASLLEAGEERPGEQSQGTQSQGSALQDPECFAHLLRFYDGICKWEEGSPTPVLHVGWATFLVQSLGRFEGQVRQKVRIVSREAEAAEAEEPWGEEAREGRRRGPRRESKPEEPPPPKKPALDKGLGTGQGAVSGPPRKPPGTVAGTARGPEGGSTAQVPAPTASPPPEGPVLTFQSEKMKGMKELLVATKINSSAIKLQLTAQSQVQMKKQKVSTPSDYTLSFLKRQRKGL
The test is described as follows: Inhibitory activity against Menin-MLL binding (fluorescence polarization). Particulars: Menin-MLL IC50, fluorescence polarization; 150 nM His-Menin, 15 nM FITC-MLL; 25°C for 60 min. The method, boiled down:
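His-Menin (M1-L615, 150 nM) preincubated with compound 15 min at 25 °C in HEPES pH 7.5, 50 mM NaCl, 1 mM DTT, 0.01% BSA, then 15 nM FITC-MLL4-43 peptide added for 60 min at 25 °C. Fluorescence polarization read; IC50 from 4-parameter logistic fit, duplicates.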
On the technique in general: Polarisation of emitted light reports the rotation of a fluorescent probe.
Compound `CCN(C(=O)c1cc(F)ccc1-c1cc(C2CCN(C[C@H]3CC[C@H](NS(=O)(=O)CC)CC3)C2)cn2c(C3CC3)ncc12)C(C)C` (stereo partly shown) [Compound 69, 2-[3-cyclopropyl-6-(1-{[(1r,4r)-4-ethanesulfonamidocyclohexyl]methyl}pyrrolidin-3-yl)imidazo[1,5-a]pyridin-8-yl]-N-ethyl-5-fluoro-N-(isopropyl)benzamide] showed an IC50 of 222 nM.

Consider `CCN(C(=O)c1cc(F)ccc1-c1cc(C2CN(C(=O)[C@@H]3CCCN3)C2)cn2c(C)nc(Cl)c12)C(C)C` [Example 125], for which the IC50 is 26.5 nM.

On to `COCCN(C(=O)c1cc(F)ccc1-c1cc(C2CN([C@@H](CCCN3C[C@H]4C[C@@H]3CO4)C(C)C)C2)cn2c(C)ncc12)C(C)C` [Example 467-2, 5-fluoro-N-(2-methoxyethyl)-2-(3-methyl-6-{1-[(3S)-2-methyl-6-[(1R,4R)-2-oxa-5-azadicyclo[2.2.1]heptan-5-yl]hexan-3-yl]azacyclobutan-3-yl}imidazo[1,5-a]pyridin-8-yl)-N-(isopropyl)benzamide], for which the IC50 stood at 54 nM.

In turn, `CCC(=O)N(c1cc(F)ccc1-c1cc(N2CCN(C(=O)C3NC4CCC3CC4)CC2)cn2c(C)ncc12)C(C)C` [Example 77, N-[5-fluoro-2-(3-methyl-6-{4-[(1R,3S,4S)-2-azabicyclo[2.2.2]octan-3-carbonyl]piperazin-1-yl}imidazo[1,5-a]pyridin-8-yl)phenyl]-N-(isopropyl)propionamide] came in with an IC50 of 100 nM.

Compound `CCN(C(=O)c1cc(F)ccc1-c1cc(C2CN(C(=O)[C@@H](NC)C(C)C)C2)cn2c(C)nc(F)c12)C(C)C` [Example 315] showed an IC50 of 39 nM.

For `CCN(C(=O)c1cc(F)ccc1-c1cc(N2CCN(CC[C@H]3CC[C@H](NS(=O)(=O)CC)CC3)CC2)cn2c(C)ncc12)C(C)C` [Compound 65, N-ethyl-5-fluoro-2-[3-methyl-6-(4-{2-[(1r,4r)-4-ethanesulfonamidocyclohexyl]ethyl}piperazine-1-yl)imidazo[1,5-a]pyridin-8-yl]-N-(isopropyl)benzamide], the IC50 is 136 nM.

Compound `CC[C@@H](C)[C@H](NC)C(=O)N1CC(c2cc(-c3ccc(F)cc3C(=O)N(CC)C(C)C)c3c(F)nc(C)n3c2)C1` [Example 318] returned an IC50 of 39 nM.

Still in this test, the particulars now being: fluorescence polarization; 150 nM His-Menin, 15 nM FITC-MLL; 25°C for 60 min; read-out: Menin-MLL IC50.
Turning to `CCN1CCN(CCC[C@@H](C(C)C)N2CC(c3cc(-c4ccc(F)cc4C(=O)N4CCOC[C@H]4C)c4cnc(C)n4c3)C2)CC1` [Example 324-1], the IC50 was 126 nM.

For `COCCN(C)CCCC(C(C)C)N1CC(Cc2cc(-c3ccc(F)cc3C(=O)N3CCOC[C@H]3C)c3cnn(C)c3c2)C1` (stereo partly shown) [Example 179], the IC50 is 89 nM.

Take `CCN(C(=O)C(C)C)c1cc(F)ccc1-c1cc(N2CCN(C(=O)C3NC4CCC3CC4)CC2)cn2c(C)ncc12` [Example 71, N-ethyl-N-[5-fluoro-2-(3-methyl-6-{4-[(1R,3S,4S)-2-azabicyclo[2.2.2]octan-3-carbonyl]piperazin-1-yl}imidazo[1,5-a]pyridin-8-yl)phenyl]-2-methylpropionamide]: the IC50 came out at 15 nM.

For the compound `CCN(C(=O)c1cc(F)ccc1-c1cc(C2CN([C@@H](CCCN3CCN(C)CC3)C(C)C)C2)cn2c(C)nc(F)c12)C(C)C` [Example 312-1], the IC50 turned out to be 32 nM.

As to `COC1CCN(CCCC(C(C)C)N2CC(c3cc(-c4ccc(F)cc4C(=O)N4CCOCC4C)c4c(F)nc(C)n4c3)C2)C1` (stereo not shown) [Example 201-2], the IC50 is 56 nM.

Turning to `CCN(C(=O)c1cc(F)ccc1-c1cc(C2CCN(CC3CCC(NC(=O)OC(C)(C)C)CC3)C2)cc2cncn12)C(C)C` (stereo not shown) [Example 24, N-(4-{[3-(5-{2-[ethyl(isopropyl)aminoformyl]-4-fluorophenyl}imidazo[1,5-a]pyridin-7-yl)pyrrolidin-1-yl]methyl}cyclohexyl)tert-butyl carbamate], the IC50 is 23 nM.

On to `CCN(C(=O)c1cc(F)ccc1-c1cc(C2CN([C@@H](CCCN3CCN(C(=O)OC(C)(C)C)CC3)C(C)C)C2)cn2c(C)ncc12)C(C)C` [Example 454-2, 4-[(4S)-4-[3-(8-{2-[ethyl(isopropyl)aminoformyl]-4-fluorophenyl}-3-methylimidazo[1,5-a]pyridin-6-yl)azacyclobutan-1-yl]-5-methylhexyl]piperazin-1-tert-butyl carboxylate], for which the IC50 was 80 nM.

On to `CCN(C(=O)c1cc(F)ccc1-c1cc(C2CN(C(CCC(=O)O)C(C)C)C2)cn2c(C)ncc12)C(C)C` (stereo not shown) [Example 427, 4-[3-(8-{2-[ethyl(isopropyl)aminoformyl]-4-fluorophenyl}-3-methylimidazo[1,5-a]pyridin-6-yl)azacyclobutan-1-yl]-5-methylhexanoic acid], for which the IC50 came to 120 nM.

On to `CCN(C(=O)c1cc(F)ccc1-c1cc(C2CCN(C[C@H]3C[C@H](NS(=O)(=O)CC)C3)C2)cn2c(C)ncc12)C(C)C` (stereo partly shown) [Example 102], for which the IC50 came to 70.5 nM.

As to `CCN(C(=O)c1cc(F)ccc1-c1cc(C2CN(C(CCN3CCN(CCO)CC3)C(C)C)C2)cn2c(C)ncc12)C(C)C` (stereo not shown) [Example 456, N-ethyl-5-fluoro-2-[6-(1-{1-[4-(2-hydroxyethyl)piperazin-1-yl]-4-methylpentan-3-yl}azacyclobutan-3-yl)-3-methylimidazo[1,5-a]pyridin-8-yl]-N-(isopropyl)benzamide], the IC50 came out at 14 nM.

Turning to `Cc1nc(F)c2c(-c3ccc(F)cc3C(=O)N3CCOC[C@H]3C)cc(C3CN(C[C@H]4CC[C@@H](c5ncno5)CC4)C3)cn12` [Example 207-2, (3R)-4-{5-fluoro-2-[1-fluoro-3-methyl-6-(1-{[(1s,4s)-4-(1,2,4-oxadiazol-5-yl)cyclohexyl]methyl}azacyclobutan-3-yl)imidazo[1,5-a]pyridin-8yl]benzoyl}-3-methylmorpholine], the IC50 worked out at 269 nM.

As for `CCN(C(=O)c1cc(F)ccc1-c1cc(C2CN([C@H](CCCN3CCOCC3)C(C)C)C2)cn2c(C)ncc12)C(C)C` [Example 375, N-ethyl-5-fluoro-2-(3-methyl-6-{1-[(3R)-2-methyl-6-(morpholin-4-yl)hexan-3-yl]azacyclobutan-3-yl}imidazo[1,5-a]pyridin-8-yl)-N-(isopropyl)benzamide], the IC50 was found to be 3.9 nM.

As for `CCN(C(=O)c1cc(F)ccc1-c1cc(N2CCN(C(=O)[C@@H]3CC4CCCCC4N3)CC2)cn2c(C)nc(Cl)c12)C(C)C` (stereo partly shown) [Example 112], the IC50 is 24 nM.

Consider `Cc1nc(F)c2c(-c3ccc(F)cc3C(=O)N3CCOC[C@H]3C)cc(C3CN(C[C@H]4CC[C@H](n5cncn5)CC4)C3)cn12` [Example 253], for which the IC50 is 39 nM.

With `CCN(C(=O)c1cc(F)ccc1-c1nc(C2CN(C(CCCN3CCN(CCO)CC3)C(C)C)C2)cn2c(C)ncc12)C(C)C` (stereo not shown) [Example 491, N-ethyl-5-fluoro-2-[6-(1-{6-[4-(2-hydroxyethyl)piperazin-1-yl]-2-methylhexan-3-yl}azacyclobutan-3-yl)-3-methylimidazo[1,5-a]pyrazin-8-yl]-N-(isopropyl)benzamide], the IC50 turned out to be 130 nM.

Take `C=C1CN[C@H](C(=O)N2CCN(c3cc(-c4ccc(F)cc4C(=O)N(CC)C(C)C)c4c(Cl)nc(C)n4c3)CC2)C1` [Example 117]: the IC50 came out at 21 nM.

On to `C[C@@H]1COCCN1C(=O)c1cc(F)ccc1-c1cc(C2CN(CC3CCN(C(=O)C4(O)CC4)CC3)C2)cc2c1cnn2C` [Example 171, 1-(4-{[3-(4-{4-fluoro-2-[(3R)-3-methylmorpholin-4-carbonyl]phenyl}-1-methyl-1H-indazol-6-yl)azacyclobutan-1-yl]methyl}piperidin-1-carbonyl)cyclopropan-1-ol], for which the IC50 was found to be 86 nM.

In the case of `CC(=O)N1CCN(CCC[C@H](C(C)C)N2CC(c3cc(-c4ccc(F)cc4C(=O)N4CCOC[C@H]4C)c4c(F)nc(C)n4c3)C2)[C@H](C)C1` [Example 328], the IC50 is 16 nM.

As to `Cc1nc(F)c2c(-c3ccc(F)cc3C(=O)N3CCOC[C@H]3C)cc(C3CN([C@H](CCCN4CCOCC4)C(C)C)C3)cn12` [Example 199-1, (3R)-4-[5-fluoro-2-(1-fluoro-3-methyl-6-{1-[(3R)-2-methyl-6-(morpholin-4-yl)hexan-3-yl]azacyclobutan-3-yl}imidazo[1,5-a]pyridin-8-yl)benzoyl]-3-methylmorpholine], the IC50 turned out to be 26 nM.

For the compound `C=C1C[C@@H]2CC[C@H]1[C@@H](C(=O)N1CCC(c3cc(-c4ccc(F)cc4C(=O)N(CC)C(C)C)c4cncn4c3)C1)N2` (stereo partly drawn) [Example 23, N-ethyl-5-fluoro-2-(6-{1-[(1S,3S,4R)-5-methylene-2-azabicyclo[2.2.2]octan-3-carbonyl]pyrrolidin-3-yl}imidazo[1,5-a]pyridin-8-yl)-N-(isopropyl)benzamide], the half-inhibitory concentration (IC50) was determined as 102 nM.

For `CCN(C(=O)c1cc(F)ccc1-c1cc(C2CN([C@H](CN3CCN(CCF)CC3)C(C)C)C2)cc2c1cnn2C)C(C)C` [Example 424, N-ethyl-5-fluoro-2-(6-{1-[(2S)-1-[4-(2-fluoroethyl)piperazin-1-yl]-3-methylbutan-2-yl]azacyclobutan-3-yl}-1-methyl-1H-indazol-4-yl)-N-(isopropyl)benzamide], the IC50 came out at 78 nM.
